# Measurements published in ChEMBL document CHEMBL5223113, “Several non-salt and solid thienopyridine derivatives as oral P2Y12 receptor inhibitors with good stability” (Bioorg Med Chem Lett, 2022).
# Key:
# Rattus norvegicus [1] = experiment: Anti-platelet activity against ADP-induced platelet aggregation in rat assessed as inhibition of platelet aggregation at 0.75 mg/kg relative to control; format: functional
# Rattus norvegicus [2] = experiment: Anti-platelet activity against ADP-induced platelet aggregation in rat assessed as inhibition of platelet aggregation at 1.5 mg/kg relative to control; format: functional
# Rattus norvegicus [3] = experiment: Anti-platelet activity against ADP-induced platelet aggregation in rat assessed as inhibition of platelet aggregation at 3 mg/kg relative to control; format: functional
# Rattus norvegicus [4] = experiment: Inhibition of thrombosis in anteriovenous bypassed rat at 3 mg/kg relative to control; format: functional
# Rattus norvegicus [5] = experiment: Inhibition of thrombosis in anteriovenous bypassed rat at 10 mg/kg relative to control; format: functional
# Rattus norvegicus [6] = experiment: Inhibition of thrombosis in anteriovenous bypassed rat at 30 mg/kg relative to control; format: functional
# Rattus norvegicus [7] = experiment: Inhibition of thrombosis in anteriovenous bypassed rat at 1 mg/kg relative to control; format: functional
# Rattus norvegicus [8] = species on record: Rattus norvegicus; experiment: Inhibition of thrombosis in anteriovenous bypassed rat; format: functional
# [9] = Stability in human plasma assessed as compound remaining measured at 5 mins relative to control; format: ADME, cell-free; conditions: read-out: Stability
# [10] = Stability in human plasma assessed as compound remaining measured at 10 mins relative to control; format: ADME, cell-free; conditions: read-out: Stability
# [11] = Stability in human plasma assessed as compound remaining measured at 20 mins relative to control; format: ADME, cell-free; conditions: read-out: Stability
# [12] = Stability in human plasma assessed as compound remaining measured at 30 mins relative to control; format: ADME, cell-free; conditions: read-out: Stability
# [13] = Stability in human plasma assessed as compound remaining measured at 45 mins relative to control; format: ADME, cell-free; conditions: read-out: Stability
# [14] = Stability in human plasma assessed as compound remaining measured at 60 mins relative to control; format: ADME, cell-free; conditions: read-out: Stability
# [15] = Stability in human plasma assessed as compound remaining measured at 90 mins relative to control; format: ADME, cell-free; conditions: read-out: Stability
# [16] = Stability in human plasma assessed as compound remaining measured at 120 mins relative to control; format: ADME, cell-free; conditions: read-out: Stability
# [17] = Stability in human plasma assessed as compound remaining measured at 150 mins relative to control; format: ADME, cell-free; conditions: read-out: Stability
# [18] = Stability in human plasma assessed as compound remaining measured at 180 mins relative to control; format: ADME, cell-free; conditions: read-out: Stability
# [19] = Stability in human plasma assessed as compound remaining measured at 240 mins relative to control; format: ADME, cell-free; conditions: read-out: Stability
# [20] = Stability in human plasma assessed as compound remaining measured at 300 mins relative to control; format: ADME, cell-free; conditions: read-out: Stability
# [21] = Stability in human plasma assessed as compound remaining measured at 360 mins relative to control; format: ADME, cell-free; conditions: read-out: Stability
# [22] = Toxicity in beagle dog assessed as death at 2000 mg/kg oral gavage observed for 14 days; format: organism-based, Canis lupus familiaris; conditions: in vivo, 336 h, time 14 day
# [23] = Toxicity in beagle dog assessed as electrocardiogram at 2000 mg/kg oral gavage observed for 14 days; format: organism-based, Canis lupus familiaris; conditions: in vivo, 336 h, time 14 day
# [24] = Toxicity in beagle dog assessed as abnormality in blood and biochemical index at 2000 mg/kg oral gavage observed for 14 days; format: organism-based, Canis lupus familiaris; conditions: in vivo, 336 h, time 14 day
# [25] = Toxicity in beagle dog assessed as electrocardiogram at 100 to 300 mg/kg/day oral gavage observed for 14 days; format: organism-based, Canis lupus familiaris; conditions: in vivo, 336 h, dose 100-300 mg/kg/day, time 14 day
# [26] = Toxicity in beagle dog assessed as abnormality in blood and biochemical index at 100 to 300 mg/kg/day oral gavage observed for 14 days; format: organism-based, Canis lupus familiaris; conditions: in vivo, 336 h, dose 100-300 mg/kg/day, time 14 day
# [27] = Toxicity in beagle dog assessed as dilated pupil at 100 to 300 mg/kg/day oral gavage observed for 14 days; format: organism-based, Canis lupus familiaris; conditions: in vivo, 336 h, dose 100-300 mg/kg/day, time 14 day
# [28] = Toxicity in beagle dog assessed as vomiting at 100 to 300 mg/kg/day oral gavage observed for 14 days; format: organism-based, Canis lupus familiaris; conditions: in vivo, 336 h, dose 100-300 mg/kg/day, time 14 day
# [29] = Toxicity in beagle dog assessed as ALT level at 100 to 300 mg/kg/day oral gavage observed for 14 days; format: organism-based, Canis lupus familiaris; conditions: in vivo, 336 h, dose 100-300 mg/kg/day, time 14 day
# [30] = Toxicity in beagle dog assessed as ALP level at 100 to 300 mg/kg/day oral gavage observed for 14 days; format: organism-based, Canis lupus familiaris; conditions: in vivo, 336 h, dose 100-300 mg/kg/day, time 14 day
# [31] = Toxicity in rat assessed as bleeding time by tail cutting assay; conditions: in vivo
# [32] = Toxicity in rat assessed as bleeding time by measuring ratio of ED200 to ED50 ratio by tail cutting assay; conditions: in vivo
# [33] = Toxicity in beagle dog assessed as mydriasis at 100 mg/kg/day oral gavage observed for 14 days; format: organism-based, Canis lupus familiaris; conditions: in vivo, 336 h, time 14 day
# [34] = Toxicity in beagle dog assessed as emesis at 100 mg/kg/day oral gavage observed for 14 days; format: organism-based, Canis lupus familiaris; conditions: in vivo, 336 h, time 14 day
# [35] = Toxicity in beagle dog assessed as increase in ALP at 100 mg/kg/day oral gavage observed for 14 days; format: organism-based, Canis lupus familiaris; conditions: in vivo, 336 h, time 14 day
# [36] = Toxicity in beagle dog assessed as decrease in platelet aggregation at 100 mg/kg/day oral gavage observed for 14 days; format: organism-based, Canis lupus familiaris; conditions: in vivo, 336 h, time 14 day
# [37] = Toxicity in beagle dog assessed as increase in liver weight at 100 mg/kg/day oral gavage observed for 14 days; format: organism-based, Canis lupus familiaris; conditions: in vivo, 336 h, time 14 day
# [38] = Toxicity in beagle dog assessed as swelling of hepatocyte at 100 mg/kg/day oral gavage observed for 14 days; format: organism-based, Canis lupus familiaris; conditions: hepatocytes, 336 h, time 14 day
# Rattus norvegicus [39] = experiment: Anti-platelet activity against ADP-induced platelet aggregation in rat assessed as inhibition of platelet aggregation at 1 mg/kg relative to control; format: functional
# Rattus norvegicus [40] = experiment: Anti-platelet activity against ADP-induced platelet aggregation in rat assessed as inhibition of platelet aggregation at 2 mg/kg relative to control; format: functional
# Rattus norvegicus [41] = experiment: Anti-platelet activity against ADP-induced platelet aggregation in rat assessed as inhibition of platelet aggregation at 4 mg/kg relative to control; format: functional
# Rattus norvegicus [42] = species on record: Rattus norvegicus; experiment: animal or person; conditions: Platelet, read-out: INH
# Description: Anti-platelet activity against ADP-induced platelet aggregation in rat assessed as inhibition of platelet aggregation at 2.5 mg/kg relative to control
# Rattus norvegicus [43] = species on record: Rattus norvegicus; experiment: animal or person; conditions: Platelet, read-out: INH; remark: listed apart in the source
# Description: Anti-platelet activity against ADP-induced platelet aggregation in rat assessed as inhibition of platelet aggregation at 5 mg/kg relative to control
# Rattus norvegicus [44] = species on record: Rattus norvegicus; experiment: animal or person; conditions: Platelet, read-out: INH; remark: listed apart in the source
# Description: Anti-platelet activity against ADP-induced platelet aggregation in rat assessed as inhibition of platelet aggregation at 10 mg/kg relative to control
# Rattus norvegicus [45] = experiment: Anti-platelet activity against ADP-induced platelet aggregation in rat assessed as inhibition of platelet aggregation at 0.25 mg/kg relative to control; format: functional
# Rattus norvegicus [46] = experiment: Anti-platelet activity against ADP-induced platelet aggregation in rat assessed as inhibition of platelet aggregation at 0.5 mg/kg relative to control; format: functional
# Rattus norvegicus [47] = experiment: Inhibition of thrombosis in anteriovenous bypassed rat at 0.1 mg/kg relative to control; conditions: read-out: INH
# Rattus norvegicus [48] = experiment: Inhibition of thrombosis in anteriovenous bypassed rat at 0.3 mg/kg relative to control; format: functional
# [49] = Toxicity in beagle dog assessed as vomiting at 1000 mg/kg oral gavage single dose; format: organism-based, Canis lupus familiaris; conditions: in vivo
# [50] = Toxicity in beagle dog assessed as atrophy of hepatocyte at 1000 mg/kg oral gavage single dose; format: organism-based, Canis lupus familiaris; conditions: hepatocytes
smiles,measurement,setting,value
C/C=C/C=C/C(=O)Oc1cc2c(s1)CCN([C@H](C(=O)OC)c1ccccc1Cl)C2,inhibition in vivo at 0.75 mg/kg,Rattus norvegicus [1],7%
same,inhibition in vivo at 1.5 mg/kg,Rattus norvegicus [2],50.8%
same,inhibition in vivo at 3 mg/kg,Rattus norvegicus [3],85.8%
same,inhibition in vivo at 3 mg/kg,Rattus norvegicus [4],40.3%
same,inhibition in vivo at 10 mg/kg,Rattus norvegicus [5],52.1%
same,inhibition in vivo at 30 mg/kg,Rattus norvegicus [6],68.6%
same,inhibition in vivo at 1 mg/kg,Rattus norvegicus [7],36.5%
same,ED50,Rattus norvegicus [8],11.8 mg/kg
same,remaining at 5 min,[9],93.5%
same,remaining at 10 min,[10],92.8%
same,remaining at 20 min,[11],97.1%
same,remaining at 0.5 h,[12],86.6%
same,remaining at 0.75 h,[13],83.9%
same,remaining at 1 h,[14],76.8%
same,remaining at 1.5 h,[15],63.8%
same,remaining at 2 h,[16],62.9%
same,remaining at 2.5 h,[17],46.7%
same,remaining at 3 h,[18],43%
same,remaining at 4 h,[19],30%
same,remaining at 5 h,[20],20.9%
same,remaining at 6 h,[21],14.8%
same,Activity,[22],Non-Toxic
same,Activity,[23],Non-Toxic
same,Activity,[24],Non-Toxic
same,Activity,[25],Non-Toxic
same,Activity,[26],Non-Toxic
same,Activity,[27],Non-Toxic
same,Activity,[28],Non-Toxic
same,Activity,[29],Non-Toxic
same,Activity,[30],Non-Toxic
same,ED200,[31],0.822 mg/kg
same,selectivity ratio,[32],0.52
same,Activity,[33],Toxic
same,Activity,[34],Toxic
same,Activity,[35],Toxic
same,Activity,[36],Toxic
same,Activity,[37],Toxic
same,Activity,[38],Toxic
C=C/C=C/C(=O)Oc1cc2c(s1)CCN([C@H](C(=O)OC)c1ccccc1Cl)C2,inhibition in vivo at 1 mg/kg,Rattus norvegicus [39],44%
same,inhibition in vivo at 2 mg/kg,Rattus norvegicus [40],97.6%
same,inhibition in vivo at 4 mg/kg,Rattus norvegicus [41],100%
COC(=O)[C@H](c1ccccc1Cl)N1CCc2sccc2C1 [CLOPIDOGREL],inhibition in vivo at 10 mg/kg,Rattus norvegicus [5],41.5%
same,inhibition in vivo at 30 mg/kg,Rattus norvegicus [6],72.6%
same,remaining at 5 min,[9],106%
same,remaining at 10 min,[10],102%
same,remaining at 20 min,[11],100%
same,remaining at 0.5 h,[12],104%
same,remaining at 0.75 h,[13],101%
same,remaining at 1 h,[14],100%
same,remaining at 1.5 h,[15],94%
same,remaining at 2 h,[16],96%
same,inhibition in vivo at 2.5 mg/kg,Rattus norvegicus [42],26.5%
same,inhibition in vivo at 5 mg/kg,Rattus norvegicus [43],59.7%
same,inhibition in vivo at 10 mg/kg,Rattus norvegicus [44],90.5%
CC(=O)Oc1cc2c(s1)CCN(C(C(=O)C1CC1)c1ccccc1F)C2 (stereo unspecified) [PRASUGREL],inhibition in vivo at 0.25 mg/kg,Rattus norvegicus [45],13.3%
same,inhibition in vivo at 0.5 mg/kg,Rattus norvegicus [46],37.8%
same,inhibition in vivo at 1 mg/kg,Rattus norvegicus [39],13.3%
same,inhibition in vivo at 3 mg/kg,Rattus norvegicus [4],70.2%
same,inhibition in vivo at 0.1 mg/kg,Rattus norvegicus [47],6%
same,inhibition in vivo at 0.3 mg/kg,Rattus norvegicus [48],9%
same,inhibition in vivo at 1 mg/kg,Rattus norvegicus [7],35.7%
same,ED50,Rattus norvegicus [8],11.8 mg/kg
same,Activity,[49],Toxic
same,Activity,[50],Toxic
same,ED200,[31],0.513 mg/kg
same,selectivity ratio,[32],0.838
